# Assay results from US7232835B2, “3,6-Disubstituted azabicyclo derivatives as muscarinic receptor antagonists” (Ranbaxy Laboratories Limited, priority 2002, dated 2007).
# Like-named read-outs stand apart in the source and are kept apart here.
# Tests used:
# M3 muscarinic receptor = target: T1, M3 muscarinic receptor (Rattus norvegicus, UniProt P08483); assay: [3H]-N-methylscopolamine radioligand binding assay, rat submandibular gland membranes; parameters: Receptor Binding Assay Selectivity: reference not given here
# T1 construct: Submandibular glands and heart were isolated and placed in ice cold homogenising buffer; from tissue; host or cells: rat submandibular gland membrane homogenate
# T1 sequence (P08483 whole entry): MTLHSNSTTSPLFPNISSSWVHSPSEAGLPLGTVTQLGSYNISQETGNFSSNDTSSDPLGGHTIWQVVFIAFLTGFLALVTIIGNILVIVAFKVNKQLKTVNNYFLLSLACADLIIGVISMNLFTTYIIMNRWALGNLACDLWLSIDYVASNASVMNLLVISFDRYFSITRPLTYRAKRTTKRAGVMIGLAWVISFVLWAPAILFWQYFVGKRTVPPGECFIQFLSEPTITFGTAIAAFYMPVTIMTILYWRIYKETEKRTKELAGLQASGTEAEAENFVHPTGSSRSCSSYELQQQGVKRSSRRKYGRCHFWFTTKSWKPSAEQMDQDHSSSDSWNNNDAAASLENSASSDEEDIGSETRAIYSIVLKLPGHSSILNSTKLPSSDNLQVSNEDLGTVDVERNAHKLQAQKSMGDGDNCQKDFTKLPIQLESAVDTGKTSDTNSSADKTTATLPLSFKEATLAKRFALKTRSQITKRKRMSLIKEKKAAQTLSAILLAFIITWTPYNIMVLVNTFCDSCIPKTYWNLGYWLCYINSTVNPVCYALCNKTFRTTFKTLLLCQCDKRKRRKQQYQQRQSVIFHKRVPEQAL
# isolated rat bladder = assay: tissue or blood; type: cell-based
# M2 muscarinic receptor = target: T2, M2 muscarinic receptor (Rattus norvegicus, UniProt P10980); assay: [3H]-N-methylscopolamine radioligand binding assay, rat heart membranes
# T2 construct: Submandibular glands and heart were isolated and placed in ice cold homogenising buffer; from tissue; host or cells: rat heart membrane homogenate
# T2 sequence (P10980 1-466): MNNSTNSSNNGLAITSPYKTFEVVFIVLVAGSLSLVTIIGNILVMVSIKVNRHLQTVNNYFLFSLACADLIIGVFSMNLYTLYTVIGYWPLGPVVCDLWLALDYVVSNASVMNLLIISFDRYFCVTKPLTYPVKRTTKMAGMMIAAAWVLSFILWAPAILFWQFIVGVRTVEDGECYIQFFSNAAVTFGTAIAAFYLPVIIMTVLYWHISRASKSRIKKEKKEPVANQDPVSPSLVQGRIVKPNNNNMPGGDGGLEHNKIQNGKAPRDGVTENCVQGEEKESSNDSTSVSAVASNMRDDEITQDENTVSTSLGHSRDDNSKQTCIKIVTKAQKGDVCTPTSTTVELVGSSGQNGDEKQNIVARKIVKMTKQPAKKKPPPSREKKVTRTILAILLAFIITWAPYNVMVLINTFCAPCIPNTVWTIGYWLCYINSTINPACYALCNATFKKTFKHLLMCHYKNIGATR
# [1] = Table III, rat submandibular gland, [3H]NMS, read-out: M3 Ki (nm)
# [2] = Table III, rat bladder strips, antagonism of carbachol contraction, read-out: Rat Bladder pKB (converted)
# [3] = Table III, rat heart, [3H]NMS, read-out: M2 Ki (nm)
# [4] = Table III, rat submandibular gland, [3H]NMS, read-out: M3 Pki (converted)
# [5] = Table II, rat submandibular gland, [3H]NMS, read-out: Receptor Binding Assay Ki (nM) M 3
# [6] = Table II, rat bladder strips, antagonism of carbachol contraction, read-out: Functional Assay KB
# [7] = Table II, rat heart, [3H]NMS, read-out: Receptor Binding Assay Ki (nM) M2
# [8] = Table III, rat heart, [3H]NMS, read-out: M2 pKi (converted)
# [9] = Receptor Binding Assay Ki (nM) M 3
# [10] = Table IV, rat submandibular gland, [3H]NMS, read-out: Receptor Binding Assay (pKi) M3 (converted)
# [11] = Table IV, rat heart, [3H]NMS, read-out: Receptor Binding Assay (pKi) M2 (converted)
compound,measurement,setting,value
"Cc1ccc(S(=O)(=O)NC(=O)N2C[C@@H]3[C@H](C2)[C@H]3NC(=O)C(O)(c2ccccc2)C2CCCCC2)cc1 (stereo partly drawn) [Compound No. 49, (1α,5α,6α)-6-N-(3-azabicyclo[3.1.0]hexyl-3-(4-methylphenyl-1-sulphonamide)urea)-2-cyclohexyl-2-hydroxy-2-phenyl acetamide]",Ki,M3 muscarinic receptor; [1],1000 nM
same,Kb,isolated rat bladder; [2],631 nM
same,Ki,M2 muscarinic receptor; [3],> 1000 nM
"O=C(NC1C2CN(Cc3ccccc3)CC21)C(O)(c1ccccc1)C1CCCCCC1 (stereo not drawn) [Compound No. 72, (1α,5α,6α)-6-N-(3-azabicyclo[3.1.0]hexyl-3-benzyl)-2-cycloheptyl-2-hydroxy-2-phenyl acetamide]",Ki,M3 muscarinic receptor; [4],20.9 nM
same,Kb,isolated rat bladder; [2],66.1 nM
same,Ki,M2 muscarinic receptor; M2 Ki (nm),1530 nM
"CC(C)=CCCN1C[C@@H]2[C@H](C1)[C@H]2NC(=O)[C@](O)(c1ccccc1)C1CCCC1 [Compound No. 81, (2R)-(1α,5α,6α)-6-N-(3-azabicyclo[3.1.0]hexyl-3-(4-methyl-3-pentenyl))-2-cyclopentyl-2-hydroxy-2-phenyl acetamide]",Ki,M3 muscarinic receptor; [5],12.4 nM
same,Receptor Binding Assay Selectivity,"M3 muscarinic receptor; Table II, ratio M2 Ki / M3 Ki",45.48
same,Ki,M3 muscarinic receptor; [1],12.4 nM
same,Ki,M3 muscarinic receptor; [4],11.5 nM
same,Kb,isolated rat bladder; [6],7.95 nM
same,Kb,isolated rat bladder; [2],11.2 nM
same,Ki,M2 muscarinic receptor; [7],564 nM
same,Ki,M2 muscarinic receptor; [3],564 nM
same,Ki,M2 muscarinic receptor; [8],525 nM
O=C(N[C@H]1[C@@H]2CN(Cc3ccccc3)C[C@@H]21)C(O)(c1ccccc1)C1CCCC1 (stereo partly shown) [Compound No. 64],Ki,M3 muscarinic receptor,68 nM
same,Kb,isolated rat bladder; [2],27.5 nM
same,Ki,M2 muscarinic receptor; [3],3000 nM
same,Ki,M2 muscarinic receptor; [8],2510 nM
"O=C(NC1C2CN(Cc3cc(F)cc(F)c3)CC21)C(O)(c1ccccc1)C1CCCCC1 (stereo not drawn) [Compound No. 23, (1α,5α,6α)-6-N-(3-azabicyclo[3.1.0]hexyl-3-(3,5-difluorobenzyl))-2-cyclohexyl-2-hydroxy-2-phenyl acetamide]",Ki,M3 muscarinic receptor; [1],530 nM
same,Kb,isolated rat bladder; [2],2290 nM
same,Ki,M2 muscarinic receptor; [3],> 1000 nM
"COc1ccc(C(O)(C(=O)NC2C3CN(CCC=C(C)C)CC32)C2CCCCC2)cc1 (stereo not drawn) [Compound No. 57, (1α,5α,6α)-6-N-(3-azabicyclo[3.1.0]hexyl-3-(4-methyl-3-pentenyl))-2-cyclohexyl-2-hydroxy-2-(4-methoxyphenyl)acetamide]",Ki,M3 muscarinic receptor; [1],240 nM
same,Kb,isolated rat bladder; [2],1860 nM
same,Ki,M2 muscarinic receptor; [3],> 1000 nM
"Cc1ccc(O)c([C@H](CCN(C(C)C)C(C)C)c2ccccc2)c1 [Tolterodine, tolterodine, reference compound]",Kb,"isolated rat bladder; Rattus norvegicus, read-out: Functional Assay KB (nM)",2 nM
same,Kb,"isolated rat bladder; Rattus norvegicus, read-out: Rat Bladder pKB (converted)",1e+07 nM
"O=C(N[C@H]1[C@@H]2CN(CCc3ccc4c(c3)OCO4)C[C@@H]21)[C@](O)(c1ccccc1)C1CCCC1 [Compound No. 82, (2R)-(1α,5α,6α)-6-N-(3-azabicyclo[3.1.0]hexyl-3-(3,4-methylenedioxyphenyl)ethyl)-2-cyclopentyl-2-hydroxy-2-phenyl acetamide]",Receptor Binding Assay Selectivity,M3 muscarinic receptor,5
same,Ki,M3 muscarinic receptor; M3 Ki (nm),11.7 nM
same,Ki,M3 muscarinic receptor; [9],11.7 nM
same,Kb,isolated rat bladder; [6],9.12 nM
same,Kb,isolated rat bladder; [2],0.759 nM
same,Ki,M2 muscarinic receptor; [7],646 nM
same,Ki,M2 muscarinic receptor; [3],646 nM
O=C(NC1C2CN(CCc3ccc4c(c3)OCO4)CC21)C(O)(c1ccccc1)C1CCCC1 (stereo not shown) [Compound No. 66],Receptor Binding Assay Selectivity,M3 muscarinic receptor,12.88
same,Ki,M3 muscarinic receptor; M3 Ki (nm),18.4 nM
same,Ki,M3 muscarinic receptor; M3 Pki,15.5 nM
same,Ki,M3 muscarinic receptor; [9],18.4 nM
same,Kb,isolated rat bladder; [6],5 nM
same,Kb,isolated rat bladder; [2],3.24 nM
same,Ki,M2 muscarinic receptor; [7],237 nM
same,Ki,M2 muscarinic receptor; [3],182 nM
same,Ki,M2 muscarinic receptor; [8],115 nM
"O=C(N[C@H]1[C@@H]2CN(Cc3ccccc3)C[C@@H]21)C(O)(c1ccccc1)C1CCCCC1 (stereo partly drawn) [Compound No. 22, (1α,5α,6α)-6-N-(3-azabicyclo[3.1.0]hexyl-3-benzyl)-2-cyclohexyl-2-hydroxy-2-phenyl acetamide]",Receptor Binding Assay Selectivity,M3 muscarinic receptor,24.07
same,Ki,M3 muscarinic receptor; [5],94 nM
same,Ki,M3 muscarinic receptor; [1],94 nM
same,Kb,isolated rat bladder; [6],27.5 nM
same,Kb,isolated rat bladder; [2],26.9 nM
same,Ki,M2 muscarinic receptor; M2 Ki (nm),2260 nM
same,Ki,M2 muscarinic receptor; Receptor Binding Assay Ki (nM) M2,2260 nM
"CCN(CC)CC#CCOC(=O)C(O)(c1ccccc1)C1CCCCC1 (stereo not shown) [Oxybutynin, oxybutynin, reference compound]",Kb,isolated rat bladder; [6],2 nM
"O=C(NC1C2CN(Cc3ccc(Br)cc3)CC21)C(O)(c1ccccc1)C1CCCCC1 (stereo not drawn) [Compound No. 24, (1α,5α,6α)-6-N-(3-azabicyclo[3.1.0]hexyl-3-(4-bromobenzyl))-2-cyclohexyl-2-hydroxy-2-phenyl acetamide]",Ki,M3 muscarinic receptor; [1],490 nM
same,Kb,isolated rat bladder; [2],3800 nM
same,Ki,M2 muscarinic receptor; [3],> 1000 nM
"O=C(NC1C2CN(Cc3c(F)cccc3F)CC21)C(O)(c1ccccc1)C1CCCCC1 (stereo not drawn) [Compound No. 25, (1α,5α,6α)-6-N-(3-azabicyclo[3.1.0]hexyl-3-(2,6-difluorobenzyl))-2-cyclohexyl-2-hydroxy-2-phenyl acetamide]",Ki,M3 muscarinic receptor; [1],1700 nM
same,Kb,isolated rat bladder; [2],288 nM
same,Ki,M2 muscarinic receptor; [3],> 1000 nM
"C#CCN1CC2C(C1)C2NC(=O)C(O)(c1ccccc1)C1CCCCC1 (stereo not drawn) [Compound No. 35, (1α,5α,6α)-6-N-(3-azabicyclo[3.1.0]hexyl-3-(2-propargyl))-2-cyclohexyl-2-hydroxy-2-phenyl acetamide]",Ki,M3 muscarinic receptor; [1],429 nM
same,Kb,isolated rat bladder; [2],24.5 nM
same,Ki,M2 muscarinic receptor; [3],1180 nM
same,Ki,M2 muscarinic receptor; [8],> 1000 nM
"CC(C)=CCCN1C[C@@H]2[C@H](C1)[C@H]2NC(=O)C(O)(c1ccccc1)C1CCCCC1 (stereo partly drawn) [Compound No. 41, (1α,5α,6α)-6-N-(3-azabicyclo[3.1.0]hexyl-3-(4-methyl-3-pentenyl))-2-cyclohexyl-2-hydroxy-2-phenyl acetamide]",Ki,M3 muscarinic receptor; [5],47 nM
same,Receptor Binding Assay Selectivity,"M3 muscarinic receptor; Table II, ratio M2 Ki / M3 Ki",62.64
same,Ki,M3 muscarinic receptor; [1],47 nM
same,Kb,isolated rat bladder; [6],32.4 nM
same,Kb,isolated rat bladder; [2],20.4 nM
same,Ki,M2 muscarinic receptor; [7],2940 nM
same,Ki,M2 muscarinic receptor; [3],2940 nM
"O=C(NC1C2CN(CCc3ccccc3)CC21)C(O)(c1ccccc1)C1CCCC1 (stereo not drawn) [Compound No. 67, (1α,5α,6α)-6-N-(3-azabicyclo[3.1.0]hexyl-3-(2-phenylethyl))-2-cyclopentyl-2-hydroxy-2-phenyl acetamide]",Ki,M3 muscarinic receptor; [4],38.9 nM
same,Kb,isolated rat bladder; [2],38 nM
same,Ki,M2 muscarinic receptor; [3],1420 nM
"CC(C)(C)OC(=O)N(CCCCOC(=O)C(O)(c1ccc(F)cc1)c1ccc(F)cc1)C1C2CNCC21 (stereo not drawn) [Compound No. 95, (1α,5α,6α)-4-[6-N-(3-azabicyclo[3.1.0]hexyl)]-N-(tert-butyloxycarbonyl)butyl-1-[2-hydroxy-2,2-bis-(4-fluorophenyl)]acetate]",Ki,M3 muscarinic receptor; [10],> 1000 nM
same,Ki,M2 muscarinic receptor; [11],> 1000 nM
"O=C(N[C@H]1[C@@H]2CN(Cc3ccc4c(c3)OCO4)C[C@@H]21)C(O)(c1ccccc1)C1CCCCC1 (stereo partly drawn) [Compound No. 42, (1α,5α,6α)-6-N-(3-azabicyclo[3.1.0]hexyl-3-(3,4-methylenedioxybenzyl))-2-cyclohexyl-2-hydroxy-2-phenyl acetamide]",Ki,M3 muscarinic receptor; [1],55 nM
same,Ki,M3 muscarinic receptor; [4],56.2 nM
same,Kb,isolated rat bladder; [2],75.9 nM
same,Ki,M2 muscarinic receptor; [3],2200 nM
"COc1ccc(C(O)(C(=O)NC2C3CNCC32)C2CCCCC2)cc1 (stereo not drawn) [Compound No. 87, (1α,5α,6α)-6-N-(3-azabicyclo-[3.1.0]hexyl)-2-cyclohexyl-2-hydroxy-2-(4-methyoxyphenyl)acetamide]",Ki,M3 muscarinic receptor; [10],> 1000 nM
same,Ki,M2 muscarinic receptor; [11],> 1000 nM
"CCCOC(C(=O)OCCCCN(C(=O)OC(C)(C)C)C1C2CNCC21)(c1ccc(F)cc1)c1ccc(F)cc1 (stereo not drawn) [Compound No. 96, (1α,5α,6α)-4-[6-N-(3-azabicyclo-[3.1.0]hexyl)]-N-(tert-butyloxycarbonyl)butyl-1-[2-propyloxy-2,2-bis-(4-fluorophenyl)]acetate]",Ki,M3 muscarinic receptor; [10],> 1000 nM
same,Ki,M2 muscarinic receptor; [11],> 1000 nM
"O=C(NC1C2CN(CCc3ccc4c(c3)CCO4)CC21)C(O)(c1ccccc1)C1CCCCC1 (stereo not drawn) [Compound No. 28, (1α,5α,6α)-6-N-(3-azabicyclo[3.1.0]hexyl-3-(2-(2,3-dihydrobenzofuran-5-yl)ethyl))-2-cyclohexyl-2-hydroxy-2-phenyl acetamide]",Ki,M3 muscarinic receptor; [1],150 nM
same,Ki,M2 muscarinic receptor; [3],> 1000 nM
"Cc1ccc(C(O)(C(=O)N[C@H]2[C@@H]3CNC[C@@H]32)C2CCCCC2)cc1 (stereo partly drawn) [Compound No. 88, (1α,5α,6α)-6-N-(3-azabicyclo-[3.1.0]hexyl)-2-cyclohexyl-2-hydroxy-2-(4-methylphenyl)acetamide]",Ki,M3 muscarinic receptor; [10],> 1000 nM
same,Ki,M2 muscarinic receptor; [11],> 1000 nM
"O=C(NC1C2CN(CCc3ccc4c(c3)OCO4)CC21)C(O)(c1ccccc1)C1CCCCC1 (stereo not drawn) [Compound No. 29, (1α,5α,6α)-6-N-(3-azabicyclo[3.1.0]hexyl-3-(2-(3,4-methylenedioxyphenyl)ethyl))-2-cyclohexyl-2-hydroxy-2-phenyl acetamide]",Ki,M3 muscarinic receptor; [1],97 nM
same,Ki,M2 muscarinic receptor; [3],> 1000 nM
Cc1cccc(N2CC3C(C2)C3NC(=O)C(O)(c2ccccc2)C2CCCC2)n1 (stereo not shown) [Compound No. 69],M3 Pki,"M3 muscarinic receptor; Table III, rat submandibular gland, [3H]NMS",5.85
same,Ki,M3 muscarinic receptor; [1],1420 nM
same,M2 pKi,"M2 muscarinic receptor; Table III, rat heart, [3H]NMS",<5
same,Ki,M2 muscarinic receptor; [3],> 10000 nM
